Measurements reported in US7109193B2, “Tricyclic diazepines tocolytic oxytocin receptor antagonists” (Wyeth, priority 2001, dated 2006).

Target: T1, human vasopressin V1a receptor subtype (Homo sapiens, UniProt P37288)
T1 construct: host or cells: CHO cells (pZeoSV vector for the Thibonnier line)
Experiment: Vasopressin binding in Chinese Hamster Ovary cell membranes expressing human vasopressin V1a subtype receptors
Details: 100 nM, CHO cell membranes, [3H]Manning ligand, values without parentheses
Method in brief: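 Displacement of [3H]Manning ligand (8 nM working solution) from human V1a receptors in CHO cell membranes, 25–50 μg protein per well. Incubation ran 60 min at room temperature in 50 mM Tris-HCl pH 7.4 with protease inhibitors, followed by filtration and scintillation counting. Results are given as IC50 or percent inhibition.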

T1 sequence (P37288 whole entry): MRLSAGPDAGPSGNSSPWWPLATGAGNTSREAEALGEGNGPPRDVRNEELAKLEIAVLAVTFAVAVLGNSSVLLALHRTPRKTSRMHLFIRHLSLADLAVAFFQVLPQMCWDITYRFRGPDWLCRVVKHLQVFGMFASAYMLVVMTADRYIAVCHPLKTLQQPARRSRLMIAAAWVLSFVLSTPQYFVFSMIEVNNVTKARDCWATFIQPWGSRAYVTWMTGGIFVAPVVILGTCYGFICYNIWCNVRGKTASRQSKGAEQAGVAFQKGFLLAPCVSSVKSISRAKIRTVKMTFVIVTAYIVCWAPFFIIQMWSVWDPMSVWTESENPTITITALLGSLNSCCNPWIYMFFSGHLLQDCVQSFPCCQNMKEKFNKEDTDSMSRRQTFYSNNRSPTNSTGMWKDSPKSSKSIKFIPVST

Row | inhibition at 0.1 µM | SMILES
1 | 79% | Cc1ccccc1-c1ccc(C(=O)N2Cc3ccc(C(=O)N(C)C4CCN(C)CC4)n3Cc3ccccc32)cc1 [Example 178, N-Methyl-10-[(2′-methyl[1,1′-biphenyl]-4-yl)carbonyl]-N-(1-methyl-4-piperidinyl)-10,11-dihydro-5H-pyrrolo[2,1-c][1,4]benzodiazepine-3-carboxamide]
2 | 42% | COc1ccccc1-c1ccc(C(=O)N2Cc3ccc(C(=O)N(C)C4CCN(C)CC4)n3Cc3ccccc32)cc1 [Example 177, 10-[(2′-Methoxy[1,1′-biphenyl]-4-yl)carbonyl]-N-methyl-N-(1-methyl-4-piperidinyl)-10,11-dihydro-5H-pyrrolo[2,1-c][1,4]benzodiazepine-3-carboxamide]
3 | 43% | COc1cc(C(=O)N2Cc3ccc(C(=O)N4CCN(CCN(C)C)CC4)n3Cc3ccccc32)ccc1-c1ccccc1C [Example 201, {4-[2-(Dimethylamino)ethyl]-1-piperazinyl}{10-[(2-methoxy-2′-methyl[1,1′-biphenyl]-4-yl)carbonyl]-10,11-dihydro-5H-pyrrolo[2,1-c][1,4]benzodiazepin-3-yl}methanone]
4 | 29% | Cc1ccccc1-c1ccc(C(=O)N2Cc3ccc(C(=O)NCCC4CCCN4C)n3Cc3ccccc32)cc1 (stereo not shown) [Example 166, 10-[(2′-Methyl[1,1′-biphenyl]-4-yl)carbonyl]-N-[2-(1-methyl-2-pyrrolidinyl)ethyl]-10,11-dihydro-5H-pyrrolo[2,1-c][1,4]benzodiazepine-3-carboxamide]
5 | 5% | O=C(c1ccc2n1Cc1ccccc1N(C(=O)c1ccc(-c3cccc4ccccc34)cc1Cl)C2)N1CCN(CCN2CCOCC2)CC1 [Example 215, {10-[2-Chloro-4-(1-naphthyl)benzoyl]-10,11-dihydro-5H-pyrrolo[2,1-c][1,4]benzodiazepin-3-yl}{4-[2-(4-morpholinyl)ethyl]-1-piperazinyl}methanone]
6 | 50% | COc1cc(C(=O)N2Cc3ccc(C(=O)NCCC4CCCN4C)n3Cc3ccccc32)ccc1-c1ccccc1C (stereo not shown) [Example 167, 10-[(2-Methoxy-2′-methyl[1,1′-biphenyl]-4-yl)carbonyl]-N-[2-(1-methyl-2-pyrrolidinyl)ethyl]-10,11-dihydro-5H-pyrrolo[2,1-c][1,4]benzodiazepine-3-carboxamide]
7 | 23% | Cc1cc(C(=O)N2Cc3ccc(C(=O)N(C)C4CCN(C)C4)n3Cc3ccccc32)ccc1-c1ccccc1C(F)(F)F (stereo not shown) [Example 194, N-Methyl-N-(1-methyl-3-pyrrolidinyl)-10-{[2-methyl-2′-(trifluoromethyl)[1,1′-biphenyl]-4-yl]carbonyl}-10,11-dihydro-5H-pyrrolo[2,1-c][1,4]benzodiazepine-3-carboxamide]
8 | 23% | COc1cccc(-c2cc(OC)c(C(=O)N3Cc4ccc(C(=O)N(C)C5CCN(C)CC5)n4Cc4ccccc43)cc2Cl)c1 [Example 181, 10-[(6-Chloro-3,3′-dimethoxy[1,1′-biphenyl]-4-yl)carbonyl]-N-methyl-N-(1-methyl4-piperidinyl)-10,11-dihydro-5H-pyrrolo[2,1-c][1,4]benzodiazepine-3-carboxamide]
9 | 64% | Cc1ccccc1-c1ccc(C(=O)N2Cc3ccc(C(=O)N4CCN(CCN(C)C)CC4)n3Cc3ccccc32)cc1 [Example 200, {4-[2-(Dimethylamino)ethyl]-1-piperazinyl}{10-[(2′-methyl[1,1′-biphenyl]-4-yl)carbonyl]-10,11-dihydro-5H-pyrrolo[2,1-c][1,4]benzodiazepin-3-yl}methanone]
10 | 2% | COc1cccc(-c2cc(OC)c(C(=O)N3Cc4ccc(C(=O)NCCN5CCCCC5)n4Cc4ccccc43)cc2Cl)c1 [Example 156, 10-[(6-Chloro-3,3′-dimethoxy[1,1′-biphenyl]-4-yl)carbonyl]-N-[2-(1-piperidinyl)ethyl]-10,11-dihydro-5H-pyrrolo[2,1-c][1,4]benzodiazepine-3-carboxamide]
11 | 44% | COc1cccc(-c2ccc(C(=O)N3Cc4ccc(C(=O)NCCN5CCCCC5)n4Cc4ccccc43)cc2OC)c1 [Example 159, 10-[(2,3′-Dimethoxy[1,1′-biphenyl]-4-yl)carbonyl]-N-[2-(1-piperidinyl)ethyl]-10,11-dihydro-5H-pyrrolo[2,1-c][1,4]benzodiazepine-3-carboxamide]
12 | 45% | COc1cccc(-c2ccc(C(=O)N3Cc4ccc(C(=O)N5CCN(CCN6CCOCC6)CC5)n4Cc4ccccc43)cc2OC)c1 [Example 211, {10-[(2,3′-Dimethoxy[1,1′-biphenyl]-4-yl)carbonyl]-10,11-dihydro-5H-pyrrolo[2,1-c][1,4]benzodiazepin-3-yl}{4-[2-(4-morpholinyl)ethyl]-1-piperazinyl}methanone]
13 | 31% | COc1cc(C(=O)N2Cc3ccc(C(=O)N(C)C4CCN(C)C4)n3Cc3ccccc32)ccc1-c1cccc2ccccc12 (stereo not shown) [Example 192, 10-[3-Methoxy-4-(1-naphthyl)benzoyl]-N-methyl-N-(1-methyl-3-pyrrolidinyl)-10,11-dihydro-5H-pyrrolo[2,1-c][1,4]benzodiazepine-3-carboxamide]
14 | 39% | COc1cc(C(=O)N2Cc3ccc(C(=O)N4CCN(CCN5CCOCC5)CC4)n3Cc3ccccc32)ccc1-c1ccccc1C [Example 210, {10-[(2-Methoxy-2′-methyl[1,1′-biphenyl]-4-yl)carbonyl]-10,11-dihydro-5H-pyrrolo[2,1-c][1,4]benzodiazepin-3-yl}{4-[2-(4-morpholinyl)ethyl]-1-piperazinyl}methanone]
15 | -8% | COc1cc(-c2ccccc2C(F)(F)F)c(Cl)cc1C(=O)N1Cc2ccc(C(=O)O)n2Cc2ccccc21 [Example 15, 10-{[6-Chloro-3-methoxy-2′-trifluoromethyl-[1,1′-biphenyl]-4-yl]carbonyl}-10,11-dihydro-5H-pyrrolo[2,1-c][1,4]benzodiazepine-3-carboxylic acid]
16 | 83% | COc1cc(C(=O)N2Cc3ccc(C(=O)N(C)C4CCN(C)C4)n3Cc3ccccc32)ccc1-c1ccccc1C (stereo not shown) [Example 189, 10-[(2-Methoxy-2′-methyl[1,1′-biphenyl]-4-yl)carbonyl]-N-methyl-N-(1-methyl-3-pyrrolidinyl)-10,11-dihydro-5H-pyrrolo[2,1-c][1,4]benzodiazepine-3-carboxamide]
17 | 89% | Cc1ccccc1-c1ccc(C(=O)N2Cc3ccc(C(=O)N(C)C4CCN(C)C4)n3Cc3ccccc32)cc1 (stereo not shown) [Example 188, N-Methyl-10-[(2′-methyl[1,1′-biphenyl]-4-yl)carbonyl]-N-(1-methyl-3-pyrrolidinyl)-10,11-dihydro-5H-pyrrolo[2,1-c][1,4]benzodiazepine-3-carboxamide]
18 | 43% | COc1cccc(-c2ccc(C(=O)N3Cc4ccc(C(=O)NCCC5CCCN5C)n4Cc4ccccc43)cc2OC)c1 (stereo not shown) [Example 172, 10-[(2,3′-Dimethoxy[1,1′-biphenyl]-4-yl)carbonyl]-N-[2-(1-methyl-2-pyrrolidinyl)ethyl]-10,11-dihydro-5H-pyrrolo[2,1-c][1,4]benzodiazepine-3-carboxamide]
19 | 8% | COc1cc(-c2ccccc2C)c(Cl)cc1C(=O)N1Cc2ccc(C(=O)NCCC3CCCN3C)n2Cc2ccccc21 (stereo not shown) [Example 168, 10-[(6-Chloro-3-methoxy-2′-methyl[1,1′-biphenyl]-4-yl)carbonyl]-N-[2-(1-methyl-2-pyrrolidinyl)ethyl]-10,11-dihydro-5H-pyrrolo[2,1-c][1,4]benzodiazepine-3-carboxamide]
20 | 16% | COc1ccccc1-c1ccc(C(=O)N2Cc3ccc(C(=O)N4CCN(CCN(C)C)CC4)n3Cc3ccccc32)cc1OC [Example 204, {10-[(2,2′-Dimethoxy[1,1′-biphenyl]-4-yl)carbonyl]-10,11-dihydro-5H-pyrrolo[2,1-c][1,4]benzodiazepin-3-yl}{4-[2-(dimethylamino)ethyl]-1-piperazinyl}methanone]
21 | 26% | COc1ccccc1-c1ccc(C(=O)N2Cc3ccc(C(=O)N(C)C4CCN(C)CC4)n3Cc3ccccc32)cc1OC [Example 183, 10-[(2,2′-Dimethoxy[1,1′-biphenyl]-4-yl)carbonyl]-N-methyl-N-(1-methyl-4-piperidinyl)-10,11-dihydro-5H-pyrrolo[2,1-c][1,4]benzodiazepine-3-carboxamide]
22 | 13% | COc1ccccc1-c1ccc(C(=O)N2Cc3ccc(C(=O)N4CCN(C(C)C)CC4)n3Cc3ccccc32)cc1C [Example 232, (4-Isopropyl-1-piperazinyl){10-[(2′-methoxy-2-methyl[1,1′-biphenyl]-4-yl)carbonyl]-10,11-dihydro-5H-pyrrolo[2,1-c][1,4]benzodiazepin-3-yl}methanone]
23 | 7% | C=CCN1CCN(C(=O)c2ccc3n2Cc2ccccc2N(C(=O)c2ccc(-c4cccc5ccccc45)c(OC)c2)C3)CC1 [Example 231, (4-Allyl-1-piperazinyl){10-[3-methoxy-4-(1-naphthyl)benzoyl]-10,11-dihydro-5H -pyrrolo[2,1-c][1,4]benzodiazepin-3-yl}methanone]
24 | 40% | COc1cc(-c2ccccc2C)c(Cl)cc1C(=O)N1Cc2ccc(C(=O)N(C)C3CCN(C)C3)n2Cc2ccccc21 (stereo not shown) [Example 190, 10-[(6-Chloro-3-methoxy-2′-methyl[1,1′-biphenyl]-4-yl)carbonyl]-N-methyl-N-(1-methyl-3-pyrrolidinyl)-10,11-dihydro-5H-pyrrolo[2,1-c][1,4]benzodiazepine-3-carboxamide]
25 | 14% | COc1cc(C(=O)N2Cc3ccc(C(=O)N(C)C4CCN(C)CC4)n3Cc3ccccc32)ccc1-c1cccc2ccccc12 [Example 182, 10-[3-Methoxy-4-(1-naphthyl)benzoyl]-N-methyl-N-(1-methyl-4-piperidinyl)-10,11-dihydro-5H-pyrrolo[2,1-c][1,4]benzodiazepine-3-carboxamide]
